ChEMBL document CHEMBL4417631, “Oral peptide inhibitors of interleukin-23 receptor and their use to treat inflammatory bowel diseases” (2017)
Where a SMILES comes first, the peptide text is derived from it.

Biological target: T1, Interleukin-23 receptor (Homo sapiens, UniProt Q5VWK5)
T1 sequence (Q5VWK5 whole entry): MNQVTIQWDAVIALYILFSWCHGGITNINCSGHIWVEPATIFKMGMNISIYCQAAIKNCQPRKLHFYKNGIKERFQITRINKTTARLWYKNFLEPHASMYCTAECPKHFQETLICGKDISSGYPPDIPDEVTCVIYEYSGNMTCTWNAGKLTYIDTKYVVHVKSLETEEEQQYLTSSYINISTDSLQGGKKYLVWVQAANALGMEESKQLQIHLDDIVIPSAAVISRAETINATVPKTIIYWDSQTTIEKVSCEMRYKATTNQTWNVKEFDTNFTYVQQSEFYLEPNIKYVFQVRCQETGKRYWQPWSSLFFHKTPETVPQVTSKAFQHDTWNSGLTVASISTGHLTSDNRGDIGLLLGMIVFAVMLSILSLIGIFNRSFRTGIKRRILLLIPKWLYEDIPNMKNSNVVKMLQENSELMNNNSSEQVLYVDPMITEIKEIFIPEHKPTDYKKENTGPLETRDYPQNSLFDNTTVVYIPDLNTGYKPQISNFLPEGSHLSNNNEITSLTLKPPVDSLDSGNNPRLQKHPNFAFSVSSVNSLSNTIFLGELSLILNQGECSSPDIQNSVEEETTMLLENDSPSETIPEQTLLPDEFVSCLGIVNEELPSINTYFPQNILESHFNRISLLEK
Experiment: Inhibition of interleukin-23 binding to human interleukin-23 receptor incubated for 2 hrs by competitive binding ELISA

Structure (SMILES) | IC50
CC(=O)N[C@@H](CS)C(=O)N[C@@H](CCC(N)=O)C(=O)N[C@H](C(=O)N[C@@H](Cc1c[nH]c2ccccc12)C(=O)N[C@@H](CCC(N)=O)C(=O)N[C@@H](CS)C(=O)N[C@@H](Cc1ccc(O)cc1)C(=O)N[C@@H](Cc1c[nH]c2ccccc12)C(=O)N[C@@H](CCCNC(=N)N)C(=O)N[C@@H](CCC(=O)O)C(=O)N[C@@H](CC(N)=O)C(=O)NCC(N)=O)[C@@H](C)O (Ac-CQTWQCYWRENG-NH2) | < 500 nM
CC(=O)N[C@@H](CS)C(=O)N[C@@H](C)C(=O)N[C@@H](CC(=O)O)C(=O)N[C@@H](Cc1c[nH]c2ccccc12)C(=O)N[C@H](C(=O)N[C@@H](CS)C(=O)N[C@@H](Cc1ccc(O)cc1)C(=O)N[C@@H](Cc1c[nH]c2ccccc12)C(=O)N[C@@H](Cc1cnc[nH]1)C(=O)N[C@H](C(=O)N[C@@H](Cc1ccccc1)C(=O)NCC(=O)NCCOCCC(=O)N[C@@H](CCCCN)C(=O)O)[C@@H](C)O)C(C)C | < 500 nM
CC(=O)N[C@@H](CS)C(=O)N[C@@H](C)C(=O)N[C@@H](CC(=O)O)C(=O)N[C@@H](Cc1c[nH]c2ccccc12)C(=O)N[C@H](C(=O)N[C@@H](CS)C(=O)N[C@@H](Cc1ccc(O)cc1)C(=O)N[C@@H](Cc1c[nH]c2ccccc12)C(=O)N[C@@H](Cc1cnc[nH]1)C(=O)N[C@H](C(=O)N[C@@H](Cc1ccccc1)C(=O)NCC(=O)N[C@@H](CCC(=O)O)C(=O)N[C@@H](CCCNC(=N)N)C(N)=O)[C@@H](C)O)C(C)C | < 500 nM
CC(=O)N[C@@H](CS)C(=O)N[C@@H](CCCNC(=N)N)C(=O)N[C@H](C(=O)N[C@@H](Cc1c[nH]c2ccccc12)C(=O)N[C@@H](CCC(N)=O)C(=O)N[C@@H](CS)C(=O)N[C@@H](Cc1ccc(O)cc1)C(=O)N[C@@H](Cc1c[nH]c2ccccc12)C(=O)N[C@@H](CCCNC(=N)N)C(=O)N[C@@H](CCCCN)C(=O)N[C@@H](Cc1ccccc1)C(=O)NCC(=O)NCCOCC(=O)N[C@H](CCCCN)C(N)=O)[C@@H](C)O | < 500 nM
N=C(N)NCCC[C@H](NC(=O)[C@H](Cc1c[nH]c2ccccc12)NC(=O)[C@H](Cc1ccc(O)cc1)NC(=O)[C@@H]1CCSCc2ccc(cc2)C(=O)N[C@@H](CCC(N)=O)C(=O)N[C@@H](CC(=O)O)C(=O)N[C@@H](Cc2c[nH]c3ccccc23)C(=O)N[C@@H](CCC(N)=O)C(=O)N1)C(=O)N[C@@H](CCC(=O)O)C(=O)N[C@@H](CC(N)=O)C(=O)NCC(=O)NCCOCC(=O)N[C@H](CCCCN)C(N)=O | > 30000 nM
CC(=O)N[C@@H](CS)C(=O)N[C@@H](C)C(=O)N[C@@H](CC(=O)O)C(=O)N[C@@H](Cc1c[nH]c2ccccc12)C(=O)N[C@H](C(=O)N[C@@H](CS)C(=O)N[C@@H](Cc1ccc(O)cc1)C(=O)N[C@@H](Cc1ccc(-c2ccccc2)cc1)C(=O)N[C@@H](Cc1cnc[nH]1)C(=O)N[C@H](C(=O)N[C@@H](Cc1ccccc1)C(=O)NCC(=O)NCCOCC(=O)N[C@H](CCCCN)C(N)=O)[C@@H](C)O)C(C)C | > 1000 nM
CC(=O)N[C@@H](CS)C(=O)N[C@@H](CCC(N)=O)C(=O)N[C@H](C(=O)N[C@@H](Cc1c[nH]c2ccccc12)C(=O)N[C@@H](CCC(N)=O)C(=O)N[C@@H](CS)C(=O)N[C@@H](Cc1ccc(O)cc1)C(=O)N[C@@H](Cc1c[nH]c2ccccc12)C(=O)N[C@@H](CCCNC(=N)N)C(=O)N(C)[C@@H](CCCCN)C(=O)N[C@@H](CC(N)=O)C(=O)NCC(=O)NCCOCC(=O)N[C@H](CCCCN)C(N)=O)[C@@H](C)O | > 1000 nM
CC(=O)N[C@@H](CS)C(=O)N[C@@H](CCC(N)=O)C(=O)N[C@H](C(=O)N[C@@H](Cc1c[nH]c2ccccc12)C(=O)N[C@@H](CCC(N)=O)C(=O)N[C@@H](CS)C(=O)N[C@@H](Cc1ccc(O)cc1)C(=O)N[C@@H](Cc1c[nH]c2ccccc12)C(=O)N[C@@H](CCCNC(=N)N)C(=O)N[C@@H](CCC(=O)O)C(=O)N[C@@H](CC(N)=O)C(=O)NCC(=O)NCCOCC(=O)N[C@H](CCCNC(=N)N)C(N)=O)[C@@H](C)O | < 500 nM
